MIC data for 1 compound are collected here from patent US6069145A, “Piperazinonephenyloxazolidinone derivatives and their use as antibacterial agents” (Zeneca Limited, priority 1996, dated 2000).

Assay type in all cases: cell-based
Assay [1] deals with Staphylococcus aureus MRQS. Nature of the assay: agar-dilution MIC, S. aureus MRQS. Particulars: methicillin resistant quinolone sensitive, 10^4 CFU/spot, 37° C., 24 hours. The method, then: (§1) The following results were obtained on a standard in vitro test system. The activity is described in terms of the minimum inhibitory concentration (MIC) determined by the agar-dilution technique with an inoculum size of 10^4 CFU/spot.
(§2) Staphylococci were tested on agar, using an inoculum of 10^4 CFU/spot and an incubation temperature of 37° C. for 24 hours--standard test conditions for the expression of methicillin resistance.
MRQS = methicillin resistant quinolone sensitive

The test system of assay [2] is Coagulase Negative Staphylococci MS. Nature of the assay: agar-dilution MIC, coagulase negative staphylococci MS. Particulars: 10^4 CFU/spot, 37° C., 24 hours. On the procedure:
as §1, §2

Assay [3] relates to Staphylococcus aureus MRQR. Nature of the assay: agar-dilution MIC, S. aureus MRQR. Particulars: methicillin resistant quinolone resistant, 10^4 CFU/spot, 37° C., 24 hours. On the procedure: as §1, §2
MRQR = methicillin resistant quinolone resistant

Assay [4] concerns Staphylococcus aureus Oxford. Nature of the assay: agar-dilution MIC, S. aureus Oxford. Particulars: 10^4 CFU/spot, 37° C., 24 hours. On the procedure: as §1, §2
The subject of another assay is Enterococcus faecalis. Nature of the assay: agar-dilution MIC, E. faecalis. Particulars: agar with 5% defibrinated horse blood, 10^4 CFU/spot, 37° C., 5% carbon dioxide, 48 hours. The method, then:
as §1
(§3) Streptococci and enterococci were tested on agar supplemented with 5% defibrinated horse blood, an inoculum of 10^4 CFU/spot and an incubation temperature of 37° C. in an atmosphere of 5% carbon dioxide for 48 hours--blood is required for the growth of some of the test organisms.

The subject of the next assay is Bacillus subtilis. Nature of the assay: agar-dilution MIC, B. subtilis. Particulars: 10^4 CFU/spot.
Source text: as §1

Assay [5] concerns Streptococcus pyogenes C203. Nature of the assay: agar-dilution MIC, S. pyogenes C203. Conditions: agar with 5% defibrinated horse blood, 10^4 CFU/spot, 37° C., 5% carbon dioxide, 48 hours. On the procedure: as §1, §3
For assay [6], the system named is Coagulase Negative Staphylococci MR. The assay can be described thus: agar-dilution MIC, coagulase negative staphylococci MR. Conditions: methicillin resistant, 10^4 CFU/spot, 37° C., 24 hours. The method, then:
as §1, §2
MR = methicillin resistant

Converted amounts (≈) assume the structure as drawn.

As to `CC(=O)NC[C@H]1CN(c2ccc(N3CCN(C)C(=O)C3)c(F)c2)C(=O)O1` [Example 1, N-(5S)-[3-(3-fluoro-4-{4-methyl-3-oxopiperazin-1-yl}phenyl)-2-oxooxazolidin-5-ylmethyl]acetamide], the MIC (commonly the lowest concentration that inhibits growth of the organism) in assay [1] turned out to be 2 µg/mL (≈ 5.49 µM); in assay [2], 0.5 µg/mL (≈ 1.37 µM); in assay [3], 4 µg/mL (≈ 11 µM); in assay [4] it was 1 µg/mL (≈ 2.74 µM); with Enterococcus faecalis, 2 µg/mL (≈ 5.49 µM); with Bacillus subtilis, 1 µg/mL (≈ 2.74 µM). Besides, the MIC in assay [5] and in assay [6] was 1 µg/mL (≈ 2.74 µM) in each case.
